Test results reported in patent US9783539B2, “Indoloquinolone compounds as anaplastic lymphoma kinase (ALK) inhibitors” (Jiangsu Ascentage Biomed Development Inc., priority 2014, dated 2017).
pIC50: −log10 of the molar value. Where “and” joins values, the source holds several entries; their conditions need not be identical. Equal values may be shown once. Read-outs that look alike come from different tables or passages of the source.

Legend:
[1] = molecular target: wild-type human ALK protein (cytoplasmic domain, amino acid 1058-1620, GST-fusion) (Homo sapiens, UniProt Q9UM73); experiment: biochemical; conditions: 100 μM ATP
Chain of wild-type human ALK protein (cytoplasmic domain, amino acid 1058-1620, GST-fusion) (Q9UM73 1058-1620): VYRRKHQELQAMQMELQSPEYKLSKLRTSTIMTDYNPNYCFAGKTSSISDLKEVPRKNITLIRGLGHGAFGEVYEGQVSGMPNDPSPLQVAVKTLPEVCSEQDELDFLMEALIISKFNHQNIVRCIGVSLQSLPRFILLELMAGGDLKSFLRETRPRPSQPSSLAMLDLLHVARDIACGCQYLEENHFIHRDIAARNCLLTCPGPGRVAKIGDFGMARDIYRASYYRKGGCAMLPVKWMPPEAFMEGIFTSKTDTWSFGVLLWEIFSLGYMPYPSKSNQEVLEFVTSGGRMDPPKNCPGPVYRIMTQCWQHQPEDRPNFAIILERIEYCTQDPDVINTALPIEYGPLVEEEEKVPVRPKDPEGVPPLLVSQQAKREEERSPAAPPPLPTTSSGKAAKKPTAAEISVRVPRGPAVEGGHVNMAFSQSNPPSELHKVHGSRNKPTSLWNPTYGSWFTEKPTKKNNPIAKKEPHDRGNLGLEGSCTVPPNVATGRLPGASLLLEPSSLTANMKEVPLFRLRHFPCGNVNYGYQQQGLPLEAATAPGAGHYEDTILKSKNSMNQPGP
Method: (§2) Kinase activities of all enzymes were assessed using a Lance TR-FRET assay kit from Perkin Elmer Life Sciences (Waltham, Mass.). 2.5 μL of compound solution and 5 μL of protein solution were added into a black low volume 384 well microtiter plate which was incubated for 15 minutes with gentle shaking at room temperature, followed by adding 2.5 μL of fluorescently labeled peptide substrate (Ulight-[sequence]) and ATP mixture solution. The kinase reaction was performed in 50 mM HEPES (pH 7.5) with 1 mM EGTA, 1 mM MgCl2, and 2 mM DTT, 0.01% Tween-20 added right before the assay. […] The reaction was allowed to perform for 90 minutes in dark with gentle shaking at room temperature after which 10 μL of 20 mM EDTA and 2 nM Eu-W1024 anti-phosphotyrosine antibody (PT66) mixture solution in the detection buffer from the manufacturer was added to terminate the reaction and detect the phosphorylation of the peptide substrate. Final mixture was incubated in the dark for 1 hour before the plate was read on a Tecan Infinite M-1000 multi-mode plate reader (Tecan, Durham N.C.) with an excitation wavelength of 320 nm.

ALK mutant (S1206Y) = ALK mutant (S1206Y) (Homo sapiens, UniProt Q9UM73, S1206Y); experiment: biochemical
Chain of ALK mutant (S1206Y) (Q9UM73 19-1620 S1206Y): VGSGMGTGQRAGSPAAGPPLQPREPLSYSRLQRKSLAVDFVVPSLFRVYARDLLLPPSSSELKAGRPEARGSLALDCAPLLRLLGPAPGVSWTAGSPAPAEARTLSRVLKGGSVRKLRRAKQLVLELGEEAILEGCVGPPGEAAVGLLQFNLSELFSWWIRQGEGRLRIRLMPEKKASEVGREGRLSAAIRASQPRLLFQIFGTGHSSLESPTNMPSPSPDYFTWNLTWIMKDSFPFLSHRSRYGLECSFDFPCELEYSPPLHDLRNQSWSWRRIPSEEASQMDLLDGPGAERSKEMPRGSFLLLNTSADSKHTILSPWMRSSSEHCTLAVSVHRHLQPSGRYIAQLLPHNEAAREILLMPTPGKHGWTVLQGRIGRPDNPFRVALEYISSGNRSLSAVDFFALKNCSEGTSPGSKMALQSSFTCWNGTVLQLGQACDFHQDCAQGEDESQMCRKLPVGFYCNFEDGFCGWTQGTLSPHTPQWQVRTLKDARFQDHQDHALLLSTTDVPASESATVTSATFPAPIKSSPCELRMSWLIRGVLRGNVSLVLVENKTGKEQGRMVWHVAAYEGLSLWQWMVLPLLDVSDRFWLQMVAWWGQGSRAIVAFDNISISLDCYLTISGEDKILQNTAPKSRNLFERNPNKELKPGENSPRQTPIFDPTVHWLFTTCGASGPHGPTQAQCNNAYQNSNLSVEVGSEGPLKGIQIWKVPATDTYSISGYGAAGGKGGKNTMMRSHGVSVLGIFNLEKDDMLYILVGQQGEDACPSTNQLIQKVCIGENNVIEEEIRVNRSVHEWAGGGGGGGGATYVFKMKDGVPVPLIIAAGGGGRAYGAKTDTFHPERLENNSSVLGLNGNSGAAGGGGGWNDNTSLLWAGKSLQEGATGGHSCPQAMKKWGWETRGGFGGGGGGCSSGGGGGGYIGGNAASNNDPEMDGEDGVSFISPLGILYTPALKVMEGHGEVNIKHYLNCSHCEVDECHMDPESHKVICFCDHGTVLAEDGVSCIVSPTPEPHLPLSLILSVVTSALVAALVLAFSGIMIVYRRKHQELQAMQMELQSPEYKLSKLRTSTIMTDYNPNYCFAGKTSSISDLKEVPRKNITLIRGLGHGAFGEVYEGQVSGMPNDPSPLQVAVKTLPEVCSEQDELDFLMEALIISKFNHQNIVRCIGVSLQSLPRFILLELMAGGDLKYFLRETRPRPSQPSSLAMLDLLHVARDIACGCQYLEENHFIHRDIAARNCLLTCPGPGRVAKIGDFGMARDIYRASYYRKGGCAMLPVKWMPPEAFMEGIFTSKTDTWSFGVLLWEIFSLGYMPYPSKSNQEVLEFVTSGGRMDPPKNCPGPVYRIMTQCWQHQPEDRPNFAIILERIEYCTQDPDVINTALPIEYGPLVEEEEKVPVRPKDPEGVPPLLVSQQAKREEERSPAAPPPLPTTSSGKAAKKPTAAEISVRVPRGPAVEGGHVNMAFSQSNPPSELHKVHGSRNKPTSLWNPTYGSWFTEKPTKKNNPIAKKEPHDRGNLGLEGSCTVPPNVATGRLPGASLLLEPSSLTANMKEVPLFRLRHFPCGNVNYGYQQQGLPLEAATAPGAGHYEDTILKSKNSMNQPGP
Method: as §2

[2] = tested on: Kappas-299 cells containing NPM-ALK fusion protein; experiment: 4-day cell viability assay (CellTiter-Glo), Kappas-299; format: cell-based; conditions: NPM-ALK, 96 h, inhibition of cell growth, 4 days, multiple values from independent experiments
Method: (§1) The effect of compounds on cell viability was determined in a 4-day proliferation assay. Cells were maintained in RPMI1640 culture medium with 10% FBS at 37° C. and an atmosphere of 5% CO2. […] Cells were seeded in 96-well plates at a density of 3,000-10,000 cells/well in 75 μl of culture medium. Compounds were serially diluted in the appropriate medium, and 75 μl of the diluted compounds were added to the appropriate wells of the cell plate. After the addition of compounds, the cells were incubated at 37° C. in an atmosphere of 5% CO2 for 4 days. Cell viability was determined using the CellTiter-Glo® Luminescent Cell Viability Assay Kit (Promega, Madison, Wis.) (for KARPAS-299 cells) or WST (2-(2-methoxy-4-nitrophenyl)-3-(4-nitrophenyl)-5-(2,4-disulfophenyl)-2H-tetrazolium, monosodium salt) Cell Counting-8 Kit (Dojindo Molecular Technologies, Inc., Rockville, Md.) (for H3122 cells) according to the manufacturers' instructions.
For CellTiter-Glo assay, 100 μl of CellTiter-Glo® Reagent was added to each well, and then the plates were incubated at room temperature for 10-20 minutes. The luminescent signal was measured using a Tecan Infinite M1000 multimode microplate reader (Tecan, Morrisville, N.C.). The readings were normalized to the DMSO-treated cells and the IC50 was calculated by nonlinear regression analysis using the GraphPad Prism 5 software.
Cells were treated for four days and cell growth was determined using a CellTiter-Glo assay.

ALK mutant (G1269A) = ALK mutant (G1269A) (Homo sapiens, UniProt Q9UM73, G1269A); experiment: biochemical; conditions: 100 μM ATP
Chain of ALK mutant (G1269A) (Q9UM73 19-1620 G1269A): as the sequence (Q9UM73 19-1620 S1206Y) above, with Y1188S, G1251A counted along it
Method: as §2

[3] = Pharmacokinetic parameters in SD rats, IV and PO; set-up: AUC(0-t): concentration or dose not given beside the values; conditions: Sprague-Dawley (SD), rat, in vivo; for bioavailability: po, read-out: Oral Bioavailability (F)
Excerpt: The pharmacokinetic (PK) parameters in SD rats for selected compounds with intravenous (IV) and oral (PO) administrations are provided in the following table (Table 5).

[4] = tested on: H3122 non-small cell lung cancer cell line harboring the EML4-ALK fusion gene; experiment: 4-day cell viability assay (WST), H3122; format: cell-based; conditions: Homo sapiens, NCI-H3122, 96 h, 4 days, read-out: IC50 (nM) in Inhibition of Tumor Cell Growth H3122 Cell line
Method: as §1
For WST assay, WST-8 reagent was added to each well at a final concentration of 10% (v/v), and then the plates were incubated at 37° C. for 1-2 hours for color development. The absorbance was measured at 450 nm using a SPECTRAmax PLUS plate reader (Molecular Devices, Sunnyvale, Calif.). The readings were normalized to the DMSO-treated cells and the half maximal inhibitory concentration (IC50) was calculated by nonlinear regression analysis using the GraphPad Prism 5 software (GraphPad Software, La Jolla, Calif.).
Cells were treated for four days and cell growth was determined using a WST assay.

[5] = IC50 ALK Wild-type, Table 2, wild-type ALK
[6] = intravenous, read-out: AUC0-t IV
[7] = intravenous, read-out: t1/2 IV (converted)
[8] = oral, read-out: t1/2 PO (converted)

pIC50 ([1]; ALK IC50, wild-type ALK) | pIC50 [1, 5] | pIC50 (ALK mutant (S1206Y)) | pIC50 (ALK mutant (G1269A)) | AUC(0-t) [3, 6] [ng·h/mL] | Cmax ([3]; intravenous, read-out: Cmax IV) [ng/mL] | Tmax ([3]; intravenous, read-out: Tmax IV) [h] | half-life [3, 7] [min] | AUC(0-t) ([3]; oral, read-out: AUC0-t PO) [ng·h/mL] | Cmax ([3]; oral, read-out: Cmax PO) [ng/mL] | Tmax ([3]; oral, read-out: Tmax PO) [h] | half-life [3, 8] [min] | bioavailability [3] [%] | IC50 [4] [nM] | SMILES | pIC50 [2]
9.51 | 9.51 | 8.89 | 9.33 and 9.26 | – | – | – | – | – | – | – | – | – | – | C#Cc1cc2c(=O)c3c4ccc(C#N)cc4[nH]c3n(C(C)C)c2cc1N1CCN(C)CC1 [ALK-71, 2-Ethynyl-5-isopropyl-3-(4-methylpiperazin-1-yl)-11-oxo-6,11-dihydro-5H-indolo[2,3-b]quinoline-8-carbonitrile] | 7.51
9.17 | 9.17 | 8.55 | 8.62 | – | – | – | – | – | – | – | – | – | – | C#Cc1cc2c(=O)c3c4ccc(C#N)cc4[nH]c3n(C3CCC3)c2cc1N1CCN(C)CC1 [ALK-72, 5-Cyclobutyl-2-ethynyl-3-(4-methylpiperazin-1-yl)-11-oxo-6,11-dihydro-5H-indolo[2,3-b]quinoline-8-carbonitrile] | 7.28
8.70 | – | – | – | 1100 | 346 | 0.083 | 314 | 4430 | 548 | 4 | 246 | 78.8 | 8.8 | CCOc1cc2c(=O)c3c4ccc(C#N)cc4[nH]c3n(C(C)C)c2c(F)c1N1CCN(C)CC1 [ALK-83, 2-Ethoxy-4-fluoro-5-isopropyl-3-(4-methylpiperazin-1-yl)-11-oxo-6,11-dihydro-5H-indolo[2,3-b]quinoline-8-carbonitrile] | 7.68
8.24 | – | – | – | 1080 | 261 | 0.083 | 314 | 2440 | 258 | 4 | 307 | 44.6 | 161 | CC(C)Oc1cc2c(=O)c3c4ccc(C#N)cc4[nH]c3n(C(C)C)c2c(F)c1N1CCN(C)CC1 [ALK-86, 4-Fluoro-2-isopropoxy-5-isopropyl-3-(4-methylpiperazin-1-yl)-11-oxo-6,11-dihydro-5H-indolo[2,3-b]quinoline-8-carbonitrile] | 7.51
